Experiments:
CsoR = biological target: T1, CsoR (Bacillus subtilis, UniProt O32222); assay: CsoR regulated in vitro transcription of 3WJdB (copper sensor); format: biochemical; conditions: for reactivity of the copper sensor against metals: FIG. 25A
T1 construct: 6xHis; made in house; host or cells: E. coli Rosetta 2(DE3)pLysS
T1 sequence (O32222 1-101): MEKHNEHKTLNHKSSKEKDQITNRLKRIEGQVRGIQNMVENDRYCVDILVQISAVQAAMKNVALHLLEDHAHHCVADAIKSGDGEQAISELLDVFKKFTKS
Description: (§1) Next, we sought to tune the sensitivity of the copper sensor to meet the EPA regulated limit of copper in drinking water (1.3 ppm). Without any tuning, the sensor detects 0.3 ppm of copper and above (FIG. 26a). To desensitize the sensor to respond near the EPA regulated limit of copper, we reasoned that excess CsoR could be added to the reactions to act as a copper chelator. […] To further implement this strategy of tuning the amount of transcription factors to shift the sensitivity of a sensor, we determined if the lead sensor can be sensitized by decreasing the amount of CadC dimer. When the concentration was decreased from 1.5 μM to 0.5 μM of CadC, we were able to shift the dose response curve to be more sensitive in order to detect tens of ppb of lead (FIG. 26b).

AdcR = biological target: T2, AdcR (Streptococcus pneumoniae serotype 2, UniProt Q04I02); assay: adcO-regulated KB2 kleptamer circuit with AdcR; format: biochemical; conditions: unregulated 3WJdB template and adcO regulated KB2 template, FIG. 23
T2 construct: Giedroc Lab (Indiana University Bloomington), gift
Description: ATF ligand-mediated transcriptional repression can be inverted to ligand-mediated activation with RNA genetic circuitry. We next tested the kleptamer system with an ATF that is known to bind to its operator site in the presence of its cognate ligand and therefore cause ligand-mediated repression. AdcR is a MarR-family ATF and known to regulate genes encoding a high-affinity ABC uptake system for zinc and cell-surface zinc-binding pneumococcal histidine triad proteins.^36 Unlike the ATFs we tested previously, apo-AdcR is unbound to its operator site. Upon binding Zn(II), AdcR undergoes a conformational change that results in binding to the operator site. We placed an operator site recognized by AdcR (adcO) upstream of the KB2 kleptamer so that when zinc is present, the transcription of the KB2 kleptamer is repressed by the AdcR-zinc complex and the fluorescence-activating 3WJdB aptamer is produced.

SAR2349 = SAR2349 (Staphylococcus aureus, UniProt Q6GEG9); conditions: FIG. 24
Description: In Vitro Transcription. DFHBI-1T was purchased from either Lucerna or Tocris Bioscience and resuspended in DMSO at 40 mM. 45 nmol of DFHBI-1T was used in each transcription reaction involving the 3WJdB aptamer. Data from FIG. 1 was generated using a HiScribe T7 Quick High Yield RNA Synthesis Kit from New England BioLabs following the manufacturer's protocol and using 1 μg of template DNA (˜5.2 pmol). All other T7 RNA polymerase transcriptions contained T7 transcription buffer (40 mM Tris-HCl pH 8.0, 20 mM NaCl, 10 mM DTT, 8 mM MgCl2, 2 mM spermidine), 8 mM NTPs, and 2 μL T7 RNA polymerase. Amount of template, inducer, and transcription factor are noted below each figure. T3 and SP6 RNA polymerase were purchased from New England BioLabs, and transcriptions using those polymerases were performed according to the manufacturers protocol. All transcriptions were performed at 37° C. and polymerase was added immediately before measurement.
Reactions were monitored in real time by measuring on a BioTek Synergy H1 plate reader set to incubate at 37° C. For the 3WJdB output, an excitation wavelength of 472 nm and emission wavelength of 507 nm was used with measurements every 3 minutes. For the InvadeR system, excitation and emission wavelengths were set at 495 nm and 520 nm respectively and measurements were taken every minute.

TetR [1] = biological target: T3, TetR (Escherichia coli, UniProt P04483); assay: TetR regulated in vitro transcription of 3WJdB with T3 or SP6 RNAP; format: biochemical; conditions: unoptimized
T3 construct: 6xHis; made in house; host or cells: E. coli Rosetta 2(DE3)pLysS
Description: RIViTS are modular with respect to RNA polymerase. T7 RNA polymerase is a single-subunit RNA polymerase from the T7 bacteriophage. It is closely related to the T3 and SP6 bacteriophages and their RNA polymerases are homologous. We reasoned that we could swap the T7-specific promoter from the TetR regulated in vitro transcription of 3WJdB for an SP6 or T3-specific promoter, and maintain the ability to repress and induce transcription by using the appropriate RNAP. […] We suspect that further optimization of the transcription reaction conditions (e.g. buffer composition) will substantially improve the fold-change between the repressed and derepressed states.

TetR [2] = biological target: T3, TetR; assay: TetR regulated in vitro transcription of 3WJdB, derepression by ligand; format: biochemical; conditions: 200 pmol of antibiotic, T7 RNAP, FIG. 7
Description: The family of tetracycline antibiotics are known ligands of the TetR repressor—they can induce an allosteric conformational change in TetR that results in a lowered affinity for the DNA operator sequence. Importantly, TetR repression of in vitro transcription is relieved if a cognate ligand is included immediately prior to measurement and coincident with the addition of T7 RNAP. […] This included anhydrotetracyline, tetracycline, oxytetracycline, chlortetracycline, and doxycycline. […] The 2 BP spacer (“GG”) promotes efficient transcription initiation with T7 RNAP.
Finally, to validate that the TetR regulated in vitro transcription reactions were specifically responsive to tetracycline antibiotics and that fluorescence was not due to nonspecific activity, we tested the TetR regulated in vitro transcription reaction of the 3WJdB output against macrolide antibiotics (FIG. 10A) as well as other common antibiotics used in biological research (FIG. 10B). None of the non-tetracycline antibiotics tested here is known to induce a conformational change in TetR. In all cases, strong repression of transcription was observed over the course of 2 hours except when tested against the positive control (anhydrotetracyline), or in the absence of the repressor (the unregulated reaction).

TetR [3] = biological target: T3, TetR; assay: TetR regulated in vitro transcription of strand-invading RNA (InvadeR), DNA output gate; format: biochemical; conditions: FIG. 9
Description: We next transcribed a strand-invading RNA (“InvadeR”) to illustrate that an alternative RNA output can also be visualized in real-time. The InvadeR system works through toehold-mediated strand displacement of a DNA output gate. The DNA output gate consists of 2 annealed and complementary strands (“reporter” and “quencher,” boxed in FIG. 3A). The reporter strand consists of 24 nucleotides and a 3′ fluorophore, while the quencher strand contains 16 complementary nucleotides and a 5′ quencher. When annealed, the two strands leave an 8-nucleotide single-stranded “toehold” region on the 5′ end of the reporter strand. Spatial proximity of the 3′ fluorophore and 5′ quencher results in fluorescence quenching (the “OFF” state). For the InvadeR system described here, we utilized a 3′ terminal single isomer derivative of fluorescein (6-FAM) and a quencher strand with a 5′ terminal Iowa Black FQ quencher. […]
Upon transcription of the InvadeR sequence, which contains 24 nucleotides of perfect complementarity to the reporter strand, the RNA product hybridizes to the single-stranded toehold region of the DNA output gate. This initiates a strand invasion reaction that eventually displaces the quencher strand and alleviates fluorescence quenching (the “ON” state). […]

MphR = MphR regulated in vitro transcription of 3WJdB; format: biochemical; conditions: FIG. 24
Description: Similarly, we tested the orthogonality of the TetR, OtrR, CtcS, and MphR with their respective ligands (FIG. 17). In the absence of the ligands or inducers, there was a strong repression of transcription by the ATFs as expected. Only the tetracycline antibiotics tested were able to cause an allosteric conformational change in TetR, OtrR, and CtcS and restore fluorescence signal equivalent to micromolar amounts of soluble FITC, confirming the results presented in FIG. 10A. Similarly, MphR was responsive to macrolide antibiotics, but not to any tetracycline antibiotics tested.

CadC = biological target: T4, CadC (Staphylococcus aureus, UniProt P20047); assay: CadC regulated in vitro transcription of 3WJdB (lead sensor); format: biochemical; conditions: CadC dimer decreased from 1.5 μM to 0.5 μM, FIG. 26b
T4 construct: 6xHis; made in house; host or cells: E. coli Rosetta 2(DE3)pLysS
Description: as §1

T3 sequence (P04483 whole entry): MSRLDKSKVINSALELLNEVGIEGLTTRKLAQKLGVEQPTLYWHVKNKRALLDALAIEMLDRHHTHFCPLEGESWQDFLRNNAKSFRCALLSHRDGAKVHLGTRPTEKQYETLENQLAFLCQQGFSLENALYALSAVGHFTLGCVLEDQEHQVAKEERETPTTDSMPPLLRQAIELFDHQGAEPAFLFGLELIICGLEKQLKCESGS
Sequence of SAR2349 (Q6GEG9 whole entry): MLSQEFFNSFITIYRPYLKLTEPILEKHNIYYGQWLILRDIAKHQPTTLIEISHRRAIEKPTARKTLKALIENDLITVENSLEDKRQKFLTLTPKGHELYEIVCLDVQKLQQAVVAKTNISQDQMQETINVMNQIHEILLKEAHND
T4 sequence (P20047 whole entry): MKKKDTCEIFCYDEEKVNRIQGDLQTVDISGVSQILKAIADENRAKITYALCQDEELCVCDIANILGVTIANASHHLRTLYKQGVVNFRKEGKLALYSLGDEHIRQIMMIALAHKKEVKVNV
T2 sequence (Q04I02 whole entry): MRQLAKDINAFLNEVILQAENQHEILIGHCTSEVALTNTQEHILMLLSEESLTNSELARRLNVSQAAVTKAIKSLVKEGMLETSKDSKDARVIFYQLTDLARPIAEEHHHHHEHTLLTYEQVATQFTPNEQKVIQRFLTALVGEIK

For [Zn+2] [zinc], the “reactivity of the copper sensor against metals” value (CsoR) was “can respond to copper as well as zinc” and the “fluorescence-activation on titration of ligand” value (AdcR) was “increased fluorescence-activation”.

With O=C(O)c1ccccc1O [salicylate] the “signal across ligand families” value (SAR2349) was “strong signals from cognate ligands with minimal crosstalk”.

With Cc1c2c(c(O)c3c(O)cccc13)C(=O)[C@]1(O)C(=O)C(C(N)=O)=C(O)[C@@H](N(C)C)[C@@H]1C2 [anhydrotetracycline] the “relief of TetR repression” value (TetR [1]; SP6 RNAP, FIG. 11B) was “repression is partially relieved”, the “relief of TetR repression” value (TetR [1]; T3 RNAP, FIG. 11A) was “repression is partially relieved” and the “relief of TetR repression, aptamer-activated fluorescence” value (TetR [2]) was “restored aptamer-activated fluorescence close to or exceeding the level of fluorescence observed”. The “derepression/induction of TetR-repressed InvadeR system” value (TetR [3]) was “derepression/induction”.

In the case of [Cu+2] [copper], the “sensitivity of the sensor” value (CsoR; CsoR tetramer increased to 7.5 μM, FIG. 26a) is reported as 1 ppm, the “signal across ligand families” value (CsoR; FIG. 24) is reported as “strong signals from cognate ligands with minimal crosstalk” and the “reactivity of the copper sensor against metals” value (CsoR) is reported as “can respond to copper as well as zinc”. The “concentration detected by the sensor” value (CsoR; without any tuning, CsoR tetramer 2.5 μM, FIG. 26a) was ≥ 0.3 ppm.

CC[C@H]1OC(=O)[C@H](C)[C@@H](O[C@H]2C[C@@](C)(OC)[C@@H](O)[C@H](C)O2)[C@H](C)[C@@H](O[C@@H]2O[C@H](C)C[C@H](N(C)C)[C@H]2O)[C@](C)(O)C[C@@H](C)C(=O)[C@H](C)[C@@H](O)[C@]1(C)O [erythromycin] was tested, and the “signal across ligand families” value (MphR) was “strong signals from cognate ligands with minimal crosstalk”.

In the case of [Pb+2] [lead], the “concentration detected by the sensor” value (CadC) is reported as “tens of ppb”.
